Columns and labels:
[1] = test system: mice bladder urothelium; assay: Adenovirus formulated with different concentrations of Dodecyl-β-D-Maltoside, infectivity of bladder urothelium; assay type: in vivo, Balb/c Mouse; conditions: for gene expression in bladder: 20 min. instillation
Procedure: • Species: Female Balb/c Mouse (Taconic Laboratory)-2/group • Study Design: To test the effect of formulating Ad-βgal virus with different concentrations of Dodecyl-β-D-Maltoside and the resultant infection of mice bladder urothelium • Dose/Route (Viral Particles #/dose):
An equal volume of 2× DDM and 2× Ad.CMV.LacZ was mixed together immediately before instillation into the bladder. […] But with 45 min. instillation, all animals with 0.05%-0.2% DDM with Ad-βgal virus had 100% gene expression in mice bladder.

[2] = test system: SW780+ Luc orthotopic bladder tumor; assay: DDM as chemical enhancer prior to Ad.LacZ infection of orthotopic bladder tumor model; assay type: in vivo, NCR nu/nu Mouse; conditions: DDM pretreatment (QQ5 minQ), 15 min Ad.Lac Z, 96 hrs; except dead necrotic tumor cells
Description: (§1) In each case, >90% Ad-βgal expression was achieved. Therefore, DDM from either manufacturer is a good candidate for a chemical enhancer for adenovirus infection in mice bladder. Efficacy of Dodecyl-β-D-Maltoside as Chemical Enhancer Prior to Adenovirus Infection of SW780+ Luc Orthotopic Bladder Tumor Model in Mice • Species: Female NCR nu/nu Mouse (Taconic Laboratory)-2/group • Study Design: To show DDM pretreatments enhance Ad.Lac Z infectivity in mice bladder urothelium. To further confirm the enhancer effect on orthotopic tumors, two mice bearing orthotopic SW780 bladder tumors were pretreated with or without DDM (QQ5 minQ) followed by 15 min Ad.Lac Z instillation. The Ad.Lac Z gene expression levels were checked in these tumor cells 4 days post Ad.Lac Z infection. • Dose/Route:
Dodecyl-β-D-Maltoside (Lot#018H7250).
Results: There was a significant difference in Ad-βgal gene expression levels between mice bladders pretreated with DDM and control animals. Without DDM pretreatment, there was very low Ad-βgal gene expression levels in bladder epithelium cells and tumor cells. With DDM pretreatment, nearly 100% of the epithelium cells were transduced with Ad-βgal gene in bladder tumors except those dead necrotic tumor cells. It was concluded that DDM pretreatment enhances Adenovirus infection in orthotopic tumor cells. […]

[3] = test system: adenovirus; assay: Study #3: compatibility of adenovirus with selected enhancers (plaque assay); assay type: physicochemical
Procedure: For this study, each sample was incubated at 37° C. or 25° C. before the plaque assay started.

[4] = test system: bladder; assay: Histopathology of bladders after chemical agent pretreatment (pathologists report); assay type: in vivo, mouse (BALB/c)
Description: Bladders fixed in whole organ fixative were sectioned and stained with hematoxylin-eosin for histologic examination.

[5] = test system: mice bladder urothelium; assay: DDM from two suppliers as pretreatment agent prior to adenovirus infection; assay type: in vivo, Balb/c Mouse; conditions: two different lots of DDM, pretreatment QQ5 minQ, 1×10^10 vp/dose for 15 min
Description: Rat bladders infected with 4×10^10 vp adenovirus achieved >90% Ad-βgal gene expression levels whereas rat bladders infected with 4×10^9 vp adenovirus had Ad-βgal gene expression levels range from 30% to 50%. […] Efficacy of Dodecyl-β-D-Maltoside as a Pretreatment Agent Prior to Adenovirus Infection of Mice Bladder Urothelium • Species: Female Balb/c Mouse (Taconic Laboratory)—2/group • Study Design: To test DDM from two different suppliers as pretreatment agents to enhance the adenovirus infection of mice bladder urothelium in a large group of animals. • Dose/Route:
as §1, with “Dose/Route: […]” for “Dose/Route:”

[6] = test system: adenovirus (Ad-LacZ); assay: Study #5: adenovirus stability after incubation with 0.1% SDS or 0.1% DDM (plaque assay); assay type: physicochemical; conditions: 0.1% solution, one hour at 25° C. or 37° C.
Procedure: In this study, adenovirus (Ad-LacZ) preparations (1.0×10^12 vp/ml) were mixed with solutions of SDS or DDM to obtain a mixture of adenovirus and each of these surfactants. […] These samples were incubated at 25° C. or 37° C. for one hour before freezing. They were sent to assay services for plaque assay analysis.

[7] = test system: bladder epithelium; assay: Transduction efficacy of exemplary pretreatment agents (summary Table 7); assay type: in vivo, mouse; conditions: pretreatment agent
[8] = test system: mice bladder urothelium; assay: Effects of different diluents on adenovirus infectivity after DDM pretreatment; assay type: in vivo, Balb/c Mouse; conditions: DDM pretreatment (QQ5 minQ); virus diluted 100 fold with different diluents, 45 min, 1×10^9 vp/dose
Procedure: • Species: Female Balb/c Mouse (Taconic Laboratory)—2/group • Study Design: To test the effects of different diluents on Adenovirus infectivity of mice urothelium followed DDM pretreatment (QQ5 minQ). The virus would be diluted 100 fold with the diluents prior to instillation into mice bladder for 45 min. • Dose/Route:
Dodecyl-β-D-Maltoside (Lot #100K5308).
All the animals had >90% in Ad-βgal gene expression in mice bladder. Adenovirus Dose Titration with Different Chemical Agents Pretreatment on SD Rat Bladder Epithelium • Species: Female Sprague Dawley Rat (Taconic Laboratory)—2/group • Study Design: To test the virus infectivity of rat bladder epithelium with different doses of Adenovirus following the pretreatment with SDS or DDM. This study also explored relationship between bladder volume and residual of SDS or DDM for adenovirus infectivity. • Dose/Route: […]

## CCCCCCCCCCCCO[C@@H]1O[C@H](CO)[C@@H](O[C@H]2O[C@H](CO)[C@@H](O)[C@H](O)[C@H]2O)[C@H](O)[C@H]1O [n-dodecyl β-D-maltoside, n-dodecyl-β-D-maltoside]
[1]; 0.05% DDM formulated with Ad-βgal virus
  gene expression in bladder: about 40%
[1]; 0.05%-0.2% DDM with Ad-βgal virus, 45 min. instillation
  gene expression in mice bladder: 100%
[1]; 0.1% DDM formulated with Ad-βgal virus
  gene expression in bladder: about 80%
[1]; 10 min. virus instillation after DDM pretreatment
  gene transduction (in words): gene transduction could be achieved
[1]; DDM formulated with virus, 10 min. instillation
  transduction rate (in words): did not achieve an acceptable transduction rate
[2]
  epithelium cells transduced with Ad-βgal gene in bladder tumors: ~100%
[3]; 25° C., 2 hours
  Average pfu/mL: 1.32E+10 pfu/mL
  Ratio vp/pfu: 16 vp/pfu
[3]; 37° C., 1 hour
  Average pfu/mL: 1.36E+10 pfu/mL
  Ratio vp/pfu: 16 vp/pfu
[3]; under the experimental conditions of Table 5
  compatibility with the adenovirus (in words): compatible with the adenovirus
[4]; 0.02% pre-treatment for 5 minutes
  pathologists report: no significant lesions
[4]; 0.05% pre-treatment for 5 minutes
  pathologists report: no significant lesions
[4]; 0.2% pre-treatment for 5 minutes
  pathologists report: erosions, focal ulcer, moderate submucosal edema with mucosal compromise
[5]
  Ad-βgal expression: > 90%
[6]
  effect on adenovirus (in words): no adverse effects on adenovirus
[7]
  Transduction Efficacy: ++++ (“++++” means >75% transduction efficacy)
[8]
  Ad-βgal gene expression in mice bladder: > 90%
